# Values joined by “and” are separate entries in the source; they are usually repeats but may differ in a detail not shown here. Equal entries are not always repeated.
# Test: Plasma pharmacokinetics of lorlatinib at steady state (LC-MS/MS, non-compartmental analysis)
# Assay type: in vivo, human
# Design: Vz_F / Cmax_D / AUMClast / AUMC_TAU: unit not given here
# Settings: for Tlag: unit assumed
# Excerpt: Lorlatinib was isolated from human plasma by a liquid-iquid extraction procedure. […] A linear-log trapezoidal method was used [NT] A best-fit method was used to estimate terminal elimination and to extrapolate any plasma concentration versus time profiles to compute [NT].
# [1] = Cohort A1, 45 mg/m2 per dose, C1D15, Max, N 3
# [2] = Cohort A1, 45 mg/m2 per dose, C1D15, Min, N 3
# [3] = Cohort A1, 45 mg/m2 per dose, C1D15, individual patient
# [4] = Cohort A1, 60 mg/m2 per dose, C1D15, Max, N 3
# [5] = Cohort A1, 60 mg/m2 per dose, C1D15, Min, N 3
# [6] = Cohort A1, 60 mg/m2 per dose, C1D15, individual patient
# [7] = Cohort A1, 75 mg/m2 per dose, C1D15, Max, N 3
# [8] = Cohort A1, 75 mg/m2 per dose, C1D15, Min, N 3
# [9] = Cohort A1, 75 mg/m2 per dose, C1D15, individual patient
# [10] = Cohort A1, 95 mg/m2 per dose, C1D15, Max, N 9
# [11] = Cohort A1, 95 mg/m2 per dose, C1D15, Min, N 9
# [12] = Cohort A1, 95 mg/m2 per dose, C1D15, individual patient
# [13] = Cohort A1, 115 mg/m2 per dose, C1D15, Max, N 6
# [14] = Cohort A1, 115 mg/m2 per dose, C1D15, Min, N 6
# [15] = Cohort A1, 115 mg/m2 per dose, C1D15, individual patient
# [16] = Cohort A2, 100 mg per dose, C1D15, Max, N 5
# [17] = Cohort A2, 100 mg per dose, C1D15, Min, N 5
# [18] = Cohort A2, 100 mg per dose, C1D15, individual patient
# [19] = Cohort A2, 150 mg per dose, C1D15, Min, N 10
# [20] = Cohort A2, 150 mg per dose, C1D15, individual patient
# [21] = Cohort B2, 95 mg/m2 per dose, C1D15, Min, N 2
# [22] = Cohort B2, 95 mg/m2 per dose, C1D15, individual patient
# [23] = Cohort B2, 115 mg/m2 per dose, C1D15, Max, N 6
# [24] = Cohort B2, 115 mg/m2 per dose, C1D15, Min, N 6
# [25] = Cohort B2, 115 mg/m2 per dose, C1D15, individual patient
# [26] = Cycle 1 Day 1, Cohort A1, 95 mg/m2 per dose
# [27] = Cycle 1 Day 1, Cohort A1, 115 mg/m2 per dose
# [28] = Cycle 1 Day 1, Cohort A2, 150 mg per dose
# [29] = Cycle 1 Day 1, Cohort A2, 150 mg per dose, in h (unit assumed)
# [30] = Cycle 1 Day 1, Cohort A2, 150 mg per dose, in ng·h/mL (unit assumed)
compound,measurement,setting,value
"C[C@H]1Oc2cc(cnc2N)-c2c(nn(C)c2C#N)CN(C)C(=O)c2ccc(F)cc21 [Lorlatinib, (10R)-7-amino-12-fluoro-2,10,16-trimethyl-15-oxo-10,15,16,17-tetrahydro-2H-8,4-(metheno)pyrazolo[4,3-h][2,5,11]-benzoxadiazacyclotetradecine-3-carbonitrile]",AUCtau or Cmax at steady state with oral dispersion formulation,17 patients who received the oral dispersion formulation,no differences
same,CLss_F,"Cohort A1, 45 mg/m2 per dose, C1D15, Geometric Mean, N 3",15.376 L/h
same,AUC_TAU,[1],3727.9 ng·h/mL
same,CLss_F,[1],19.85 L/h
same,Cmax,[1],639 ng/mL
same,Tmax,[1],2 h
same,AUC_TAU,[2],1259.74 ng·h/mL
same,Cmax,[2],243 ng/mL
same,Tmax,[2],1 h
same,AUC_TAU,[3],1259.74 ng·h/mL and 3727.9 ng·h/mL
same,CLss_F,[3],19.85 L/h and 12.41 L/h and 14.75 L/h
same,Cmax,[3],639 ng/mL and 243 ng/mL
same,Tmax,[3],2 h
same,CLss_F,"Cohort A1, 60 mg/m2 per dose, C1D15, Geometric Mean, N 3",13.223 L/h
same,AUC_TAU,[4],4173.07 ng·h/mL
same,CLss_F,[4],16.77 L/h
same,Cmax,[4],623 ng/mL
same,Tmax,[4],2 h
same,CLss_F,"Cohort A1, 60 mg/m2 per dose, C1D15, Median, N 3",12.07 L/h
same,AUC_TAU,[5],3503.02 ng·h/mL
same,CLss_F,[5],11.42 L/h
same,Cmax,[5],343 ng/mL
same,Tmax,[5],1 h
same,AUC_TAU,[6],3503.02 ng·h/mL and 4173.07 ng·h/mL
same,CLss_F,[6],12.07 L/h and 11.42 L/h and 16.77 L/h
same,Cmax,[6],343 ng/mL
same,Tmax,[6],2 h
same,CLss_F,"Cohort A1, 75 mg/m2 per dose, C1D15, Geometric Mean, N 3",15.412 L/h
same,AUC_TAU,[7],6555.75 ng·h/mL
same,CLss_F,[7],18.36 L/h
same,Cmax,[7],670 ng/mL
same,Tmax,[7],6 h
same,CLss_F,"Cohort A1, 75 mg/m2 per dose, C1D15, Median, N 3",17.43 L/h
same,AUC_TAU,[8],2723.69 ng·h/mL
same,CLss_F,[8],11.44 L/h
same,Cmax,[8],609 ng/mL
same,Tmax,[8],1 h
same,AUC_TAU,[9],6555.75 ng·h/mL and 2723.69 ng·h/mL
same,CLss_F,[9],11.44 L/h and 17.43 L/h and 18.36 L/h
same,Cmax,[9],609 ng/mL and 670 ng/mL
same,Tmax,[9],6 h and 2 h
same,CLss_F,"Cohort A1, 95 mg/m2 per dose, C1D15, Geometric Mean, N 9",9.802 L/h
same,AUC_TAU,[10],14697.9 ng·h/mL
same,CLss_F,[10],14.62 L/h
same,Cmax,[10],1880 ng/mL
same,CLss_F,"Cohort A1, 95 mg/m2 per dose, C1D15, Median, N 9",10.12 L/h
same,AUC_TAU,[11],3760.87 ng·h/mL
same,CLss_F,[11],6.46 L/h
same,Cmax,[11],590 ng/mL
same,Tmax,[11],1 h
same,AUC_TAU,[12],14697.9 ng·h/mL and 11566.7 ng·h/mL and 5234.23 ng·h/mL and 6616.73 ng·h/mL and 4786.75 ng·h/mL and 7725.79 ng·h/mL and 3760.87 ng·h/mL and 12827.9 ng·h/mL
same,CLss_F,[12],6.46 L/h and 12.54 L/h and 10.51 L/h and 8.31 L/h and 12.53 L/h and 7.77 L/h and 10.12 L/h and 14.62 L/h and 8.19 L/h
same,Cmax,[12],1420 ng/mL and 607 ng/mL and 842 ng/mL and 590 ng/mL and 1230 ng/mL and 1220 ng/mL and 938 ng/mL and 1880 ng/mL
same,Tmax,[12],2 h
same,CLss_F,"Cohort A1, 115 mg/m2 per dose, C1D15, Geometric Mean, N 6",11.462 L/h
same,AUC_TAU,[13],14092.4 ng·h/mL
same,CLss_F,[13],16.79 L/h
same,Cmax,[13],2090 ng/mL
same,CLss_F,"Cohort A1, 115 mg/m2 per dose, C1D15, Median, N 6",10.95 L/h
same,AUC_TAU,[14],5878.52 ng·h/mL
same,CLss_F,[14],7.45 L/h
same,Cmax,[14],708 ng/mL
same,Tmax,[14],1 h
same,AUC_TAU,[15],8206.77 ng·h/mL and 6238.52 ng·h/mL and 11011.1 ng·h/mL and 5878.52 ng·h/mL and 8933.2 ng·h/mL and 14092.4 ng·h/mL
same,CLss_F,[15],15.84 L/h and 9.62 L/h and 9.99 L/h and 11.91 L/h and 16.79 L/h and 7.45 L/h
same,Cmax,[15],708 ng/mL and 1210 ng/mL and 1530 ng/mL and 859 ng/mL and 2090 ng/mL
same,Tmax,[15],2 h
same,CLss_F,"Cohort A2, 100 mg per dose, C1D15, Geometric Mean, N 5",14.731 L/h
same,AUC_TAU,[16],16686 ng·h/mL
same,CLss_F,[16],32.13 L/h
same,Cmax,[16],1830 ng/mL
same,CLss_F,"Cohort A2, 100 mg per dose, C1D15, Median, N 5",16.3 L/h
same,AUC_TAU,[17],3111.99 ng·h/mL
same,CLss_F,[17],5.99 L/h
same,Cmax,[17],341 ng/mL
same,Tmax,[17],1 h
same,AUC_TAU,[18],16686 ng·h/mL and 10710.2 ng·h/mL and 3111.99 ng·h/mL and 4225.59 ng·h/mL
same,CLss_F,[18],5.99 L/h and 9.34 L/h and 32.13 L/h and 16.3 L/h and 23.67 L/h
same,Cmax,[18],1830 ng/mL and 1630 ng/mL and 341 ng/mL and 528 ng/mL
same,Tmax,[18],2 h
same,AUC_TAU,"Cohort A2, 150 mg per dose, C1D15, Max, N 10",8297.22 ng·h/mL
same,AUC_TAU,[19],4999.09 ng·h/mL
same,Cmax,[19],502 ng/mL
same,Tmax,[19],1 h
same,AUC_TAU,[20],7380.68 ng·h/mL and 6784.89 ng·h/mL and 4999.09 ng·h/mL and 5689.56 ng·h/mL and 7693.93 ng·h/mL and 6576.81 ng·h/mL and 7115.87 ng·h/mL and 7004.8 ng·h/mL and 8297.22 ng·h/mL
same,CLss_F,[20],25.34 L/h and 20.32 L/h and 22.11 L/h and 30.01 L/h and 26.36 L/h and 19.5 L/h and 22.81 L/h and 21.08 L/h
same,Cmax,[20],647 ng/mL and 750 ng/mL and 502 ng/mL and 670 ng/mL and 912 ng/mL and 943 ng/mL and 602 ng/mL and 814 ng/mL
same,Tmax,[20],2 h
same,AUC_TAU,[21],5523.12 ng·h/mL
same,Cmax,[21],721 ng/mL
same,Tmax,[21],2 h
same,AUC_TAU,[22],5523.12 ng·h/mL
same,Cmax,[22],721 ng/mL
same,Tmax,[22],2 h
same,CLss_F,"Cohort B2, 115 mg/m2 per dose, C1D15, Geometric Mean, N 6",13.049 L/h
same,AUC_TAU,[23],17825.7 ng·h/mL
same,CLss_F,[23],20.8 L/h
same,Cmax,[23],2190 ng/mL
same,Tmax,[23],2 h
same,CLss_F,"Cohort B2, 115 mg/m2 per dose, C1D15, Median, N 6",12.47 L/h
same,AUC_TAU,[24],5493.74 ng·h/mL
same,CLss_F,[24],7.85 L/h
same,Cmax,[24],766 ng/mL
same,Tmax,[24],1 h
same,AUC_TAU,[25],17825.7 ng·h/mL and 6932.9 ng·h/mL and 8905.09 ng·h/mL and 5493.74 ng·h/mL and 6008.87 ng·h/mL and 6951.39 ng·h/mL
same,Cmax,[25],2190 ng/mL and 1680 ng/mL and 1330 ng/mL and 766 ng/mL
same,Tmax,[25],2 h
same,Tlast,[26],24 h
same,Tmax,"Cycle 1 Day 1, Cohort A1, 95 mg/m2 per dose, listed as lorlatinib, in h (unit assumed)",2
same,Tlag,[26],0 h
same,Tlast,[27],24 h
same,Tmax,"Cycle 1 Day 1, Cohort A1, 115 mg/m2 per dose, in h (unit assumed)",1
same,Tmax,"Cycle 1 Day 1, Cohort A1, 115 mg/m2 per dose, listed as lorlatinib, in h (unit assumed)",2
same,Tlag,[27],0 h
same,AUMClast,[28],83897.37077 and 79949.21779 and 69497.95951 and 102751.9946 and 91445.2354 and 87523.98089 and 72181.31228
same,Tlast,[28],24 h
same,MRTlast,[29],8.731 and 10.12 and 8.547 and 10.11 and 9.639 and 8.636
same,Tmax,[29],2
same,Clast,"Cycle 1 Day 1, Cohort A2, 150 mg per dose, in ng/mL",158 and 127 and 138 and 146 and 206
same,AUCall,[30],9157 and 6869 and 12022.44647 and 9046 and 9080
same,AUClast,[30],9157 and 6869 and 12022.44647 and 9046 and 9080 and 8359
